Results taken from ChEMBL document CHEMBL1129919, “Cyclic homopentapeptides 1. Analogs of tuberactinomycins and capreomycin with activity against vancomycin-resistant enterococci and Pasteurella” (1997).
Values after ≈ are worked out from the molar mass of the structure shown. *1 amine or outer side, *2 acyl side, *3 side chain or, on linkers, in order; H or OH if unused. Where a SMILES comes first, the peptide text is derived from it. Bridges are numbered along the chain shown (N, C = ends). Side-chain parts run from the residue outwards. [ ]: non-standard residue; d: D form. The star is where a group is joined. ξ: configuration not given here. NH(4-cHex-phenyl) = c1cc(C2CCCCC2)ccc1N*; X4 = NC1=NCCC([C@H](N[*:1])C(=O)[*:2])N1; ΔAla(Z-3-ureido) = NC(=O)N/C=C(\N)C(=O)O; ΔDap(Z) = O=C(/C(=C/N[*:3])N[*:1])[*:2]; X6 = c1ccc(Cc2ccc(N*)cc2)cc1; β3hOrn = NCCC[C@H](N)CC(=O)*; X7 = c1cc(N2CCCCC2)ccc1N*; Dap = NC[C@H](N)C(=O)O; CO = O=C([*:1])[*:2]; X5 = Clc1cc(N*)ccc1I; ξDap = NCC(N)C(=O)O

How the values were obtained:
Format in all cases: functional
[1] = tested on: Enterococcus faecium; test: Protective dose against both MRSA and vancomycin-resistant Enterococcus faecium.; settings: read-out: PD50
[2] = tested on: Enterococcus faecalis; test: In vitro antibacterial activity against Enterococcus faecalis (vancomycin, methicillin and ciprofloxacin resistant), expressed as minimum inhibitory concentration (MIC)
[3] = tested on: Enterococcus faecium; test: In vitro antibacterial activity against Enterococcus faecium (vancomycin, methicillin and ciprofloxacin resistant), expressed as minimum inhibitory concentration (MIC).
[4] = tested on: Mus musculus; test: In vivo activity against Pasteurella multocida in mice; settings: read-out: PD50
[5] = tested on: Pasteurella multocida; test: In vitro antibacterial activity against Pasteurella multocida, expressed as minimum inhibitory concentration (MIC)
[6] = tested on: Staphylococcus aureus; test: In vitro antibacterial activity against methicillin-resistant Staphylococcus aureus (MRSA), expressed as minimum inhibitory concentration (MIC)
[7] = tested on: Escherichia coli; test: In vitro antibacterial activity against Escherichia coli, expressed as minimum inhibitory concentration (MIC)
[8] = tested on: Mus musculus; test: In vivo activity against Escherichia coli in mice after subcutaneous administration; Range is 8-10 mg/kg; settings: sc, read-out: PD50
[9] = tested on: Mus musculus; test: In vivo activity against Pasteurella multocida in mice after subcutaneous administration; Range is 8-10 mg/kg; settings: sc, read-out: PD50
[10] = tested on: Mus musculus; test: In vivo activity against Pasteurella multocida in mice after subcutaneous administration; settings: sc, read-out: PD50
[11] = tested on: Enterococcus faecalis; test: In vitro antibacterial activity against E. faecalis( vancomycin, methicillin and ciprofloxacin resistant), expressed as minimum inhibitory concentration (MIC)

Row | SMILES | ED50 [1] | MIC [2] | MIC [3] | ED50 [4] | MIC [5] | MIC [6] | MIC [7] | ED50 [8] | ED50 [9] | ED50 [10] | MIC [11]
1 | NCCC[C@H](N)CC(=O)NC[C@@H]1NC(=O)[C@H](CO)NC(=O)C(N)CNC(=O)[C@H](C2CCN=C(N)N2)NC(=O)/C(=C/NC(=O)Nc2cc(Cl)c(Cl)c(Cl)c2)NC1=O (stereo partly drawn) | 3 mg/kg | 3.12 µg/mL (≈ 3.68 µM) | 1.56 µg/mL (≈ 1.84 µM) | 4 mg/kg | 0.2 µg/mL (≈ 0.236 µM) | 0.78 µg/mL (≈ 0.92 µM) | 12.5 µg/mL (≈ 14.7 µM) |  |  |  | 
2 | C[C@@H]1NC(=O)C(N)CNC(=O)[C@H](C2CCN=C(N)N2)NC(=O)/C(=C/Nc2nc(-c3ccc(Br)cc3)cs2)NC(=O)[C@H](CNC(=O)C[C@@H](N)CCCN)NC1=O.NCCC[C@H](N)CC(=O)NC[C@@H]1NC(=O)[C@H](CO)NC(=O)C(N)CNC(=O)[C@H](C2CCN=C(N)N2)NC(=O)/C(=C/Nc2nc(-c3ccc(Br)cc3)cs2)NC1=O (stereo partly drawn) |  | 50 µg/mL | 12.5 µg/mL |  | 3.13 µg/mL | 12.5 µg/mL | 100 µg/mL |  |  |  | 
3 | NCCC[C@H](N)CC(=O)NC1CNC(=O)[C@H](C2C[C@@H](O)N=C(N)N2)NC(=O)/C(=C/Nc2ccc(Cl)c(Cl)c2)NC(=O)[C@H](CO)NC(=O)[C@H](CO)NC1=O (stereo partly drawn) |  | 50 µg/mL (≈ 63.5 µM) | 25 µg/mL (≈ 31.7 µM) |  | 0.78 µg/mL (≈ 0.99 µM) | 12.5 µg/mL (≈ 15.9 µM) | 12.5 µg/mL (≈ 15.9 µM) | 10 mg/kg | 10 mg/kg |  | 
4 | NCCC[C@H](N)CC(=O)NC[C@@H]1NC(=O)[C@H](CO)NC(=O)C(N)CNC(=O)[C@H](C2CCN=C(N)N2)NC(=O)/C(=C/NC(=O)Nc2ccc(C3CCCCC3)cc2)NC1=O (stereo partly drawn) (H-[ξDap]S[Dap](β3hOrn)[ΔDap(Z)]([CO-NH(4-cHex-phenyl)])[X4]; lactam 1-C) |  | 3.12 µg/mL (≈ 3.77 µM) | 1.56 µg/mL (≈ 1.89 µM) |  | 0.39 µg/mL (≈ 0.472 µM) | 1.56 µg/mL (≈ 1.89 µM) | 25 µg/mL (≈ 30.2 µM) |  |  |  | 
5 | C[C@@H]1NC(=O)C(N)CNC(=O)[C@H](C2CCN=C(N)N2)NC(=O)/C(=C/Nc2ccc(Cl)c(Cl)c2)NC(=O)[C@H](CNC(=O)C[C@@H](N)CCCN)NC1=O.NCCC[C@H](N)CC(=O)NC[C@@H]1NC(=O)[C@H](CO)NC(=O)C(N)CNC(=O)[C@H](C2CCN=C(N)N2)NC(=O)/C(=C/Nc2ccc(Cl)c(Cl)c2)NC1=O (stereo partly drawn) |  | 25 µg/mL | 12.5 µg/mL |  | 0.39 µg/mL | 0.78 µg/mL | 6.25 µg/mL |  |  | 6 mg/kg | 
6 | CN[C@H](CC(C)C)C(=O)N[C@H]1C(=O)N[C@@H](CC(N)=O)C(=O)N[C@H]2C(=O)N[C@H]3C(=O)N[C@H](C(=O)N[C@H](C(=O)O)c4cc(O)cc(O)c4-c4cc3ccc4O)[C@H](O)c3ccc(c(Cl)c3)Oc3cc2cc(c3O[C@@H]2O[C@H](CO)[C@@H](O)[C@H](O)[C@H]2O[C@H]2C[C@](C)(N)[C@H](O)[C@H](C)O2)Oc2ccc(cc2Cl)[C@H]1O [VANCOMYCIN] |  | > 100 µg/mL | > 100 µg/mL |  |  | 0.78 µg/mL (≈ 0.538 µM) |  |  |  |  | 
7 | C[C@@H]1NC(=O)C(N)CNC(=O)[C@H](C2CCN=C(N)N2)NC(=O)C(CNC(=O)Nc2ccc(I)c(Cl)c2)NC(=O)[C@H](CNC(=O)C[C@@H](N)CCCN)NC1=O.NCCC[C@H](N)CC(=O)NC[C@@H]1NC(=O)[C@H](CO)NC(=O)C(N)CNC(=O)[C@H](C2CCN=C(N)N2)NC(=O)C(CNC(=O)Nc2ccc(I)c(Cl)c2)NC1=O (stereo partly drawn) (H-[ξDap]S[Dap](β3hOrn)[ξDap]([CO-X5])[X4]; lactam 1-C) |  | 50 µg/mL | 12.5 µg/mL | 7 mg/kg | 0.78 µg/mL | 3.12 µg/mL | 6.25 µg/mL |  |  |  | 
8 | C[C@@H]1NC(=O)C(N)CNC(=O)[C@H](C2CCN=C(N)N2)NC(=O)/C(=C/NC(N)=O)NC(=O)[C@H](CNC(=O)C[C@@H](N)CCCN)NC1=O.NCCC[C@H](N)CC(=O)NC[C@@H]1NC(=O)[C@H](CO)NC(=O)C(N)CNC(=O)[C@H](C2CCN=C(N)N2)NC(=O)/C(=C/NC(N)=O)NC1=O (stereo partly drawn) (H-[ξDap]S[Dap](β3hOrn)[ΔAla(Z-3-ureido)][X4]; lactam 1-C) |  |  | > 1000 µg/mL |  | 50 µg/mL | 100 µg/mL | 200 µg/mL |  |  |  | > 1000 µg/mL
9 | NCC[C@@H](O)[C@H](N)CC(=O)NC1CNC(=O)[C@@H](C2CCN=C(N)N2)NC(=O)/C(=C/NC(=O)Nc2ccc(C3CCCC3)cc2Cl)NC(=O)[C@@H](CO)NC(=O)[C@@H](CO)NC1=O (stereo partly drawn) |  | 6.25 µg/mL (≈ 7.23 µM) | 3.12 µg/mL (≈ 3.61 µM) |  |  | 3.12 µg/mL (≈ 3.61 µM) |  |  |  |  | 
10 | C[C@@H]1NC(=O)C(N)CNC(=O)[C@H](C2CCN=C(N)N2)NC(=O)/C(=C/Nc2ccc(C3CCCCC3)cc2)NC(=O)[C@H](CNC(=O)C[C@@H](N)CCCN)NC1=O.NCCC[C@H](N)CC(=O)NC[C@@H]1NC(=O)[C@H](CO)NC(=O)C(N)CNC(=O)[C@H](C2CCN=C(N)N2)NC(=O)/C(=C/Nc2ccc(C3CCCCC3)cc2)NC1=O (stereo partly drawn) |  | 12.5 µg/mL | 6.25 µg/mL |  | 0.2 µg/mL | 1.56 µg/mL | 6.25 µg/mL |  |  | 2 mg/kg | 
11 | NCCC[C@H](N)CC(=O)NC[C@@H]1NC(=O)[C@H](CO)NC(=O)C(N)CNC(=O)[C@H](C2CCN=C(N)N2)NC(=O)/C(=C/NC(=O)Nc2ccc(N3CCCCC3)cc2)NC1=O (stereo partly drawn) (H-[ξDap]S[Dap](β3hOrn)[ΔDap(Z)]([CO-X7])[X4]; lactam 1-C) |  | 100 µg/mL (≈ 121 µM) | 100 µg/mL (≈ 121 µM) |  | 1.56 µg/mL (≈ 1.88 µM) | 3.12 µg/mL (≈ 3.77 µM) | 50 µg/mL (≈ 60.4 µM) |  |  |  | 
12 | C[C@@H]1NC(=O)C(N)CNC(=O)[C@H](C2CCN=C(N)N2)NC(=O)/C(=C/NC(=O)Nc2ccc(Cc3ccccc3)cc2)NC(=O)[C@H](CNC(=O)C[C@@H](N)CCCN)NC1=O.NCCC[C@H](N)CC(=O)NC[C@@H]1NC(=O)[C@H](CO)NC(=O)C(N)CNC(=O)[C@H](C2CCN=C(N)N2)NC(=O)/C(=C/NC(=O)Nc2ccc(Cc3ccccc3)cc2)NC1=O (stereo partly drawn) (H-[ξDap]S[Dap](β3hOrn)[ΔDap(Z)]([CO-X6])[X4]; lactam 1-C) |  | 6.25 µg/mL | 3.12 µg/mL |  | 0.78 µg/mL | 1.56 µg/mL | 12.5 µg/mL |  |  |  | 
